Results from patent publication US20240043797A1, “METHOD FOR MASS PRODUCTION OF HIGHLY PURE, STEM CELL-DERIVED EXTRACELLULAR VESICLE BY USING PEPTIDE” (INDUSTRY-ACADEMIC COOPERATION FOUNDATION, CHOSUN UNIVERSITY, priority 2020, published 2024).
Ends that are not written are not given here. Peptide text beside a SMILES is read from it.

Key:
Assay type in all cases: cell-based
mesenchymal stem cells = experiment: Inhibitor assay: EV production after pretreatment with BAPTA-AM or ALLM; settings: TS-eEV production; cells pretreated with 50 μM BAPTA-AM 1 hour or 10 μM ALLM 18 hours
Protocol: The cells were pretreated with 50 μM BAPTA-AM (calcium-selective chelator) for 1 hour and with 10 μM ALLM (calpain inhibitor) for 18 hours. Comparison was made of EV production outputs among the method used, and the results are shown in FIGS. 14a and 14b and Table 15.

[1] = Viability of umbilical cord MSCs against eMTD peptide, absorbance analysis (ez-cytox, 450 nm; 'MTT assay')
Protocol: Mesenchymal stem cells derived from the umbilical cord (Wharton's jelly-derived MSCs, WJ-MSCs) were assayed for viability by treatment with the eMTD peptide at predetermined concentrations for predetermined periods of time. Tests were conducted with predetermined concentrations of the eMTD peptide. In this regard, umbilical cord-derived mesenchymal stem cells were seeded at a density of 2×10^4 cells/well into 24-well plates (30024, SPL). After 24 hours of incubation, the eMTD peptide in a sucrose buffer was applied at a final concentration of 0, 0.5, 1, 3, 5, 10, or 20 μM to the cells. The sucrose buffer contained glucose, sucrose, and 3-(N-morpholino)propanesulfonic acid [MOPS] at the respective concentrations shown in Table 2. After 15 minutes, the cells were incubated with ez-cytox (EZ-3000, DOGEN) for 30 to 60 minutes. Then, absorbance was read at 450 nm using a Bio-RAD x-Mark™ spectrophotometer (Bio-Rad Laboratories, USA). In addition, treatment with the eMTD peptide was conducted over various times. In this regard, umbilical cord-derived mesenchymal stem cells were seeded at a density of 2×10^4 cells/well into 24-well plates and incubated for 24 hours. Thereafter, the cells were treated with 1 μM of the eMTD peptide in the sucrose buffer for various periods of time (0, 5, 10, 15, 20, 25, or 30 minutes). After 15 minutes of treatment, the cells were incubated for 30 to 60 minutes with ez-cytox (EZ-3000, DOGEN). Absorbance was read at 450 nm using the Bio-RAD x-Mark™ spectrophotometer (Bio-Rad Laboratories, USA).

[2] = Viability of umbilical cord MSCs against eMTD peptide, cell counting with trypan blue (TB assay)
Protocol: To measure the number of cells, umbilical cord-derived mesenchymal stem cells were seeded at a density of 2.5×10^4 cells/well into 12-well plates (30012, SPL) and incubated for 24 hours. The eMTD peptide in the sucrose buffer of Table 2 was applied at a final concentration of 0, 0.5, 1.0, 3.0, 5.0, 10.0, or 20.0 μM to the cells. After 15 minutes, the cells were counted using a trypan blue solution. Separately, umbilical cord-derived mesenchymal stem cells were seeded at a density of 2.5×10^4 cells/well into 12-well plates (30012, SPL) and incubated for 24 hours. The cells were treated with the eMTD peptide in the sucrose buffer of Table 2 for various periods of time (0, 5, 10, 15, 20, 25, and 30 minutes). After each period, the cells were counted using a trypan blue solution, and the results are depicted in FIG. 2 and summarized in Tables 5 and 6.

Question: Which “EV production (particle number/cell)” value (mesenchymal stem cells) does the source give for `CSCC[C@@H](C=O)NC(=O)[C@H](CC(C)C)NC(=O)[C@H](CC(C)C)NC(C)=O` [ALLM] (Ac-Leu-Leu-Met-aldehyde) here?
Answer: 8.25 × 10^3 ± 9.96 × 10^2 particle number/cell

Question: For `CC(=O)OCOC(=O)CN(CC(=O)OCOC(C)=O)c1ccccc1OCCOc1ccccc1N(CC(=O)OCOC(C)=O)CC(=O)OCOC(C)=O` [BAPTA-AM], which “EV production (particle number/cell)” value (mesenchymal stem cells) is on record?
Answer: 7.34 × 10^3 ± 9.08 × 10^2 particle number/cell

Question: Which viability at 5 min, 1 μM ([1]; MTT assay, 1 μM eMTD, time 5 min, read-out: Cell viability (%)) does the source give for KLNFRQKLLNLISKLFCSGT [eMTD] here?
Answer: 52.7%

Question: What about the viability at 10 min, 1 μM ([1]; MTT assay, 1 μM eMTD, time 10 min, read-out: Cell viability (%)) of the same compound?
Answer: 41.8%

Question: What about the viability at 15 min, 1 μM ([1]; MTT assay, 1 μM eMTD, time 15 min, read-out: Cell viability (%)) of the same compound?
Answer: 37%

Question: What about the viability at 20 min, 1 μM ([1]; MTT assay, 1 μM eMTD, time 20 min, read-out: Cell viability (%)) of the same compound?
Answer: 29.4%

Question: What about the viability at 25 min, 1 μM ([1]; MTT assay, 1 μM eMTD, time 25 min, read-out: Cell viability (%)) of the same compound?
Answer: 18.5%

Question: What about the viability at 30 min, 1 μM ([1]; MTT assay, 1 μM eMTD, time 30 min, read-out: Cell viability (%)) of the same compound?
Answer: 17.8%

Question: What about the viability at 15 minutes, 0.5 μM ([1]; MTT assay, eMTD 0.5 μM, 15 minutes, read-out: Cell viability (%)) of the same compound?
Answer: 53.9%

Question: And the viability at 15 minutes, 1 μM ([1]; MTT assay, eMTD 1.0 μM, 15 minutes, read-out: Cell viability (%))?
Answer: 57.4%

Question: And the viability at 15 minutes, 3 μM ([1]; MTT assay, eMTD 3.0 μM, 15 minutes, read-out: Cell viability (%))?
Answer: 13.6%

Question: What about the viability at 15 minutes, 5 μM ([1]; MTT assay, eMTD 5.0 μM, 15 minutes, read-out: Cell viability (%)) of the same compound?
Answer: 5.8%

Question: And the viability at 15 minutes, 10 μM ([1]; MTT assay, eMTD 10.0 μM, 15 minutes, read-out: Cell viability (%))?
Answer: 2.9%

Question: And the viability at 15 minutes, 20 μM ([1]; MTT assay, eMTD 20.0 μM, 15 minutes, read-out: Cell viability (%))?
Answer: 4.1%

Question: And the viability at 15 minutes, 1 μM ([1]; cell viability)?
Answer: ~50%

Question: And the viability at 15 minutes, 10 μM [2]?
Answer: 0%

Question: What about the viability at 15 minutes, 0.5 μM ([2]; umbilical cord-derived mesenchymal stem cells, TB assay, eMTD 0.5 μM, 15 minutes) of the same compound?
Answer: 66.7%

Question: And the viability at 15 minutes, 1 μM ([2]; umbilical cord-derived mesenchymal stem cells, TB assay, eMTD 1.0 μM, 15 minutes)?
Answer: 66.3%

Question: And the viability at 15 minutes, 3 μM ([2]; umbilical cord-derived mesenchymal stem cells, TB assay, eMTD 3.0 μM, 15 minutes)?
Answer: 21.9%

Question: What about the viability at 15 minutes, 5 μM ([2]; umbilical cord-derived mesenchymal stem cells, TB assay, eMTD 5.0 μM, 15 minutes) of the same compound?
Answer: 11.2%

Question: And the viability at 15 minutes, 20 μM ([2]; umbilical cord-derived mesenchymal stem cells, TB assay, eMTD 20.0 μM, 15 minutes)?
Answer: 2.1%

Question: What about the viability at 5 min ([2]; umbilical cord-derived mesenchymal stem cells, TB assay, time 5 min) of the same compound?
Answer: 40%

Question: What about the viability at 10 min ([2]; umbilical cord-derived mesenchymal stem cells, TB assay, time 10 min) of the same compound?
Answer: 29.7%

Question: And the viability at 15 min ([2]; umbilical cord-derived mesenchymal stem cells, TB assay, time 15 min)?
Answer: 38.5%

Question: What about the viability at 20 min ([2]; umbilical cord-derived mesenchymal stem cells, TB assay, time 20 min) of the same compound?
Answer: 35.9%

Question: What about the viability at 25 min ([2]; umbilical cord-derived mesenchymal stem cells, TB assay, time 25 min) of the same compound?
Answer: 14.6%

Question: What about the viability at 30 min ([2]; umbilical cord-derived mesenchymal stem cells, TB assay, time 30 min) of the same compound?
Answer: 15.6%
